Results from publication PMC8191315 (European Journal of Medicinal Chemistry, 2021).

Target: SARS-CoV-2 RdRp (Severe acute respiratory syndrome coronavirus 2, UniProt P0DTD1)
Assay type: cell-based
Settings: 5 μM and 10 μM, HEK293T cells, 24 h, real-time qRT-PCR

O=C(CSc1c[nH]c2ccccc12)N(Cc1ccccc1)Cc1ccccc1 [6b2, N,N-dibenzyl-2-((1H-indol-3-yl)thio)acetamide]
levels of viral plus- and minus-strand Gluc RNA: decreased the levels of viral plus- and minus-strand Gluc RNA in a dose-dependent manner

CN(Cc1ccccc1)C(=O)CSc1c[nH]c2ccccc12 [6b5, 2-((1H-indol-3-yl)thio)-N-benzyl-N-methylacetamide]
levels of viral plus- and minus-strand Gluc RNA: decreased the levels of viral plus- and minus-strand Gluc RNA in a dose-dependent manner

COc1ccccc1CNC(=O)CSc1c[nH]c2c(-c3ccccc3)cccc12 [6c9, N-(2-methoxybenzyl)-2-((7-phenyl-1H-indol-3-yl)thio)acetamide]
levels of viral plus- and minus-strand Gluc RNA: decreased the levels of viral plus- and minus-strand Gluc RNA in a dose-dependent manner

O=C(CSc1c[nH]c2cccc(Br)c12)N(Cc1ccccc1)Cc1ccccc1 [6d2, N,N-dibenzyl-2-((4-bromo-1H-indol-3-yl)thio)acetamide]
levels of viral plus- and minus-strand Gluc RNA: decreased the levels of viral plus- and minus-strand Gluc RNA in a dose-dependent manner

CCOc1ccccc1CN(OC)C(=O)CSc1c[nH]c2cccc(Br)c12 [6d5, N-(2-ethoxybenzyl)-2-((4-bromo-1H-indol-3-yl)thio)-N-methoxyacetamide]
levels of viral plus- and minus-strand Gluc RNA: decreased the levels of viral plus- and minus-strand Gluc RNA in a dose-dependent manner
